Patent publication US8232288B2, “Substituted benzimidazoles, benzothiazoles and benzoxazoles” (Gruenenthal GmbH, priority 2009, dated 2012)

Columns and labels:
[1] = target: T1, B1R receptor of the rat (rB1R) (Rattus norvegicus, UniProt P97583); test: Functional investigation on the bradykinin receptor 1 (B1R), FLIPR Ca2+ assay, rB1R cells; assay type: cell-based
T1 construct: expressed in transfected cells; host or cells: CHO K1 cells
T1 sequence (P97583 1-337): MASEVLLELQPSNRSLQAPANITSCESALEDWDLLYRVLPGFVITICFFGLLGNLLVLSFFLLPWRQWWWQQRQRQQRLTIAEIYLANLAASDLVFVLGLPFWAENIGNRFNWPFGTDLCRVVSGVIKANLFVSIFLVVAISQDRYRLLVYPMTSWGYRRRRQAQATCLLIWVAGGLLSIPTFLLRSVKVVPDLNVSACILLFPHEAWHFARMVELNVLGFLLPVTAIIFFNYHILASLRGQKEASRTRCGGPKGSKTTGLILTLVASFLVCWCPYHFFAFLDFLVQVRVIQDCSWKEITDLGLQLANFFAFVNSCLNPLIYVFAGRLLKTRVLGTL
Method in brief: (§1)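 Stably transfected CHO K1 cells expressing human or rat B1R were loaded with Fluo-4, and Ca2+ fluorescence was read on a FLIPR. Compound (10 μM) was added first to measure activation. After 10–20 min, agonist at EC80 was added (Lys-Des-Arg9-bradykinin for hB1R, Des-Arg9-bradykinin for rB1R) to give % inhibition. IC50 values came from concentration series.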

[2] = target: T2, human B1R receptor (hB1R) (Homo sapiens, UniProt P46663); test: Functional investigation on the bradykinin receptor 1 (B1R), FLIPR Ca2+ assay, hB1R cells; assay type: cell-based
T2 construct: expressed in transfected cells; host or cells: CHO K1 cells
T2 sequence (P46663 1-353): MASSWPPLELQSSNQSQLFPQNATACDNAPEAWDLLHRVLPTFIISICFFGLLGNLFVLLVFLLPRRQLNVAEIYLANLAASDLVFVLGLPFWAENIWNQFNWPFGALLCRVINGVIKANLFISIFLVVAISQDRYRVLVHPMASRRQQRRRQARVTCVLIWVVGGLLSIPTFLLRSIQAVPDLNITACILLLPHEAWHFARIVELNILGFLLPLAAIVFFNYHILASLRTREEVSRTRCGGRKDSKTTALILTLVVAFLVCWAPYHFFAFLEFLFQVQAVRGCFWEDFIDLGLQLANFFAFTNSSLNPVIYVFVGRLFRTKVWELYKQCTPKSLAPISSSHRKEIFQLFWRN
Method in brief: as §1

Structure (SMILES)	inhibition at 10 µM [1] [%]	inhibition at 10 µM [2] [%]
COc1cc(C)c(S(=O)(=O)N(C)c2nc3cccc(C(=O)N4CCC5(CC4)C(=O)NCC5c4ccncc4)c3n2C)c(C)c1 (stereo not shown) [I_CC-16, 4-methoxy-N,2,6-trimethyl-N-[1-methyl-7-(4-oxo-1-pyridin-4-yl-3,8-diazaspiro[4.5]decane-8-carbonyl)-1H-benzoimidazol-2-yl]-benzenesulfonic acid amide]	82	72
COc1cc(C)c(S(=O)(=O)N(C)c2nc3ccc(C(=O)N4CCC5(CC4)CCN(c4ccncc4)CC5)cc3n2C)c(C)c1 [I_CC-17, 4-methoxy-N,2,6-trimethyl-N-[1-methyl-6-(3-pyridin-4-yl-3,9-diazaspiro[5.5]undecane-9-carbonyl)-1H-benzoimidazol-2-yl]-benzenesulfonic acid amide]	56	71
COc1cc(C)c(S(=O)(=O)N(C)c2nc3ccc(C(=O)N4CCC5(CC4)CCN(c4ccncc4)C5)cc3n2C)c(C)c1 [I_CC-18, 4-methoxy-N,2,6-trimethyl-N-[1-methyl-6-(3-pyridin-4-yl-3,8-diazaspiro[4.5]decane-8-carbonyl)-1H-benzoimidazol-2-yl]-benzenesulfonic acid amide]	48	39
COc1cc(C)c(S(=O)(=O)N(C)c2nc3c(C(=O)N4CCC5(CC4)CCN(c4ccncc4)CC5)cccc3s2)c(C)c1 [I_CC-19, 4-methoxy-N,2,6-trimethyl-N-[4-(3-pyridin-4-yl-3,9-diazaspiro[5.5]undecane-9-carbonyl)-benzothiazol-2-yl]-benzenesulfonic acid amide]	80	54
COc1cc(C)c(S(=O)(=O)N(C)Cc2nc3c(C(=O)N4CCC5(CC4)CCN(c4ccncc4)C5)cccc3s2)c(C)c1 [I_CC-20, 4-methoxy-N,2,6-trimethyl-N-[[4-(3-pyridin-4-yl-3,8-diazaspiro[4.5]decane-8-carbonyl)-benzothiazol-2-yl]-methyl]-benzenesulfonic acid amide]	100	93
COc1cc(C)c(S(=O)(=O)N(C)c2nc3c(C(=O)N4CCC5(CC4)CCN(c4ccncc4)C5)cccc3s2)c(C)c1 [I_CC-21, 4-methoxy-N,2,6-trimethyl-N-[4-(3-pyridin-4-yl-3,8-diazaspiro[4.5]decane-8-carbonyl)-benzothiazol-2-yl]-benzenesulfonic acid amide]	65	36
COc1cc(C)c(S(=O)(=O)N(C)Cc2nc3c(C(=O)N4CCC5(CC4)CCN(c4ccncc4)CC5)cccc3s2)c(C)c1 [I_CC-22, 4-methoxy-N,2,6-trimethyl-N-[[4-(3-pyridin-4-yl-3,9-diazaspiro[5.5]undecane-9-carbonyl)-benzothiazol-2-yl]-methyl]-benzenesulfonic acid amide]	93	95
COc1cc(C)c(C(=O)N(C)Cc2nc3cccc(C(=O)N4CCC5(CC4)CCN(c4ccncc4)CC5)c3[nH]2)c(C)c1 [I_CC-23, 4-methoxy-N,2,6-trimethyl-N-[[7-(3-pyridin-4-yl-3,9-diazaspiro[5.5]undecane-9-carbonyl)-1H-benzoimidazol-2-yl]-methyl]-benzamide]	105	100
COc1cc(C)c(C(=O)N(C)Cc2nc3cccc(C(=O)N4CCC5(CC4)CCN(c4ccncc4)C5)c3[nH]2)c(C)c1 [I_CC-24, 4-methoxy-N,2,6-trimethyl-N-[[7-(3-pyridin-4-yl-3,8-diazaspiro[4.5]decane-8-carbonyl)-1H-benzoimidazol-2-yl]-methyl]-benzamide]	101	98
COc1cc(C)c(S(=O)(=O)N(C)C(C)c2nc3cccc(C(=O)N4CCC5(CCN(Cc6c[nH]cn6)CC5)CC4)c3[nH]2)c(C)c1 (stereo not shown) [I_CC-25, N-[1-[7-[9-(1H-Imidazol-4-yl-methyl)-3,9-diazaspiro[5.5]undecane-3-carbonyl]-1H-benzoimidazol-2-yl]-ethyl]-4-methoxy-N,2,6-trimethyl-benzenesulfonic acid amide]	103	58
COc1cc(C)c(S(=O)(=O)N(C)C(C)c2nc3cccc(C(=O)N4CCC5(CCN(Cc6ccccn6)CC5)CC4)c3[nH]2)c(C)c1 (stereo not shown) [I_CC-26, 4-Methoxy-N,2,6-trimethyl-N-[1-[7-[9-(pyridin-2-yl-methyl)-3,9-diazaspiro[5.5]undecane-3-carbonyl]-1H-benzoimidazol-2-yl]-ethyl]-benzenesulfonic acid amide]	89	91
COc1cc(C)c(S(=O)(=O)N(C)C(C)c2nc3cccc(C(=O)N4CCC5(CCN(Cc6ccncc6)CC5)CC4)c3[nH]2)c(C)c1 (stereo not shown) [I_CC-27, 4-Methoxy-N,2,6-trimethyl-N-[1-[7-[9-(pyridin-4-yl-methyl)-3,9-diazaspiro[5.5]undecane-3-carbonyl]-1H-benzoimidazol-2-yl]-ethyl]-benzenesulfonic acid amide]	92	90
COc1cc(C)c(S(=O)(=O)N(C)C(C)c2nc3cccc(C(=O)N4CCC5(CCN(Cc6cccnc6)CC5)CC4)c3[nH]2)c(C)c1 (stereo not shown) [I_CC-28, 4-Methoxy-N,2,6-trimethyl-N-[1-[7-[9-(pyridin-3-yl-methyl)-3,9-diazaspiro[5.5]undecane-3-carbonyl]-1H-benzoimidazol-2-yl]-ethyl]-benzenesulfonic acid amide]	85	96
COc1cc(C)c(S(=O)(=O)N(C)C(C)c2nc3cccc(C(=O)N4CCC5(CCN(Cc6c(F)cccc6F)CC5)CC4)c3[nH]2)c(C)c1 (stereo not shown) [I_CC-29, N-[1-[7-[9-[(2,6-Difluoro-phenyl)-methyl]-3,9-diazaspiro[5.5]undecane-3-carbonyl]-1H-benzoimidazol-2-yl]-ethyl]-4-methoxy-N,2,6-trimethyl-benzenesulfonic acid amide]	94	84
COc1cc(C)c(S(=O)(=O)N(C)C(C)c2nc3cccc(C(=O)N4CCC5(CCN(Cc6ccc(F)c(F)c6)CC5)CC4)c3[nH]2)c(C)c1 (stereo not shown) [I_CC-30, N-[1-[7-[9-[(3,4-Difluoro-phenyl)-methyl]-3,9-diazaspiro[5.5]undecane-3-carbonyl]-1H-benzoimidazol-2-yl]-ethyl]-4-methoxy-N,2,6-trimethyl-benzenesulfonic acid amide]	99	63
COc1cc(C)c(S(=O)(=O)N(C)C(C)c2nc3cccc(C(=O)N4CCC5(CCN(Cc6cc(F)ccc6F)CC5)CC4)c3[nH]2)c(C)c1 (stereo not shown) [I_CC-31, N-[1-[7-[9-[(2,5-Difluoro-phenyl)-methyl]-3,9-diazaspiro[5.5]undecane-3-carbonyl]-1H-benzoimidazol-2-yl]-ethyl]-4-methoxy-N,2,6-trimethyl-benzenesulfonic acid amide]	104	63
COc1cc(C)c(S(=O)(=O)N(C)C(C)c2nc3cccc(C(=O)N4CCC5(CCN(Cc6ccc(F)cc6F)CC5)CC4)c3[nH]2)c(C)c1 (stereo not shown) [I_CC-32, N-[1-[7-[9-[(2,4-Difluoro-phenyl)-methyl]-3,9-diazaspiro[5.5]undecane-3-carbonyl]-1H-benzoimidazol-2-yl]-ethyl]-4-methoxy-N,2,6-trimethyl-benzenesulfonic acid amide]	99	71
COc1cc(C)c(S(=O)(=O)N(C)C(C)c2nc3cccc(C(=O)N4CCC5(CCN(Cc6ccc(OC)c(F)c6)CC5)CC4)c3[nH]2)c(C)c1 (stereo not shown) [I_CC-33, N-[1-[7-[9-[(3-Fluoro-4-methoxy-phenyl)-methyl]-3,9-diazaspiro[5.5]undecane-3-carbonyl]-1H-benzoimidazol-2-yl]-ethyl]-4-methoxy-N,2,6-trimethyl-benzenesulfonic acid amide]	89	80
COc1cc(C)c(S(=O)(=O)N(C)C(C)c2nc3cccc(C(=O)N4CCC5(CCN(Cc6c(F)cccc6OC)CC5)CC4)c3[nH]2)c(C)c1 (stereo not shown) [I_CC-34, N-[1-[7-[9-[(2-Fluoro-6-methoxy-phenyl)-methyl]-3,9-diazaspiro[5.5]undecane-3-carbonyl]-1H-benzoimidazol-2-yl]-ethyl]-4-methoxy-N,2,6-trimethyl-benzenesulfonic acid amide]	86	91
COc1cc(C)c(S(=O)(=O)N(C)C(C)c2nc3cccc(C(=O)N4CCC5(CCN(Cc6[nH]cnc6C)CC5)CC4)c3[nH]2)c(C)c1 (stereo not shown) [I_CC-35, 4-Methoxy-N,2,6-trimethyl-N-[1-[7-[9-[(5-methyl-3H-imidazol-4-yl)-methyl]-3,9-diazaspiro[5.5]undecane-3-carbonyl]-1H-benzoimidazol-2-yl]-ethyl]-benzenesulfonic acid amide]	104	68
